Measurements from patent publication US8143242B2, “Malonamide derivatives with antithrombotic activity” (Sanofi-Aventis, priority 2007, dated 2012).
Where a name gives a salt, the structure may show the parent alone.

target: T1, human factor VIIa and TF (factor VIIa/tissue factor) (Homo sapiens, UniProt P08709); assay: Factor VIIa (FVIIa) chromogenic assay; type: biochemical; conditions: chromogenic substrate S-2288 500 μM; 5 nM FVIIa, 10 nM TF; 25° C.; 15 minute preincubation; pH 8.15
T1 construct: human factor VIIa and TF
T1 sequence (P08709 213-466 limits assumed): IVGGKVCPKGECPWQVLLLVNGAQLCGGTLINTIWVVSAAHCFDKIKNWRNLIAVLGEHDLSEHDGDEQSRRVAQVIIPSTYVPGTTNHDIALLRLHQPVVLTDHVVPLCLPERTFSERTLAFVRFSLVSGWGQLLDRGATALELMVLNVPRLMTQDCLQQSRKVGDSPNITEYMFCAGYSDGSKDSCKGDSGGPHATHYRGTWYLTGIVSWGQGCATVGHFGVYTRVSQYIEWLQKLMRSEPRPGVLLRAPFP
T1 sequence (P08709 61-212 limits assumed): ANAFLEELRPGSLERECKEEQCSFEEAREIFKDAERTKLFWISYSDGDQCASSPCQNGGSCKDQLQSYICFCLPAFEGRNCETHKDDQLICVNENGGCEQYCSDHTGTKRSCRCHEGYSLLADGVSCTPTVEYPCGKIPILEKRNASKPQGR
T1 sequence (P13726 33-295 partner): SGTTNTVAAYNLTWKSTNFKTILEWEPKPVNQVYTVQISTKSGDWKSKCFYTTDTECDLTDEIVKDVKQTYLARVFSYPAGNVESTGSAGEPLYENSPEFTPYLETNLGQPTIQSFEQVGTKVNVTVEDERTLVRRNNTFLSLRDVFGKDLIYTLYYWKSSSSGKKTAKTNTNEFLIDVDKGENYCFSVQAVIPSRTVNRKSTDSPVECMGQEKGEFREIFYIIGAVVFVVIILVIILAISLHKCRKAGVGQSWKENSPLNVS
Description: The ability of the compounds of the formulae I and Ia to inhibit factor VIIa or other enzymes like factor Xa, thrombin, plasmin, or trypsin can be assessed by determining the concentration of the compound of the formulae I and Ia that inhibits enzyme activity by 50%, i. e. the IC50 value, which is related to the inhibition constant Ki. Purified enzymes are used in chromogenic assays. The concentration of inhibitor that causes a 50% decrease in the rate of substrate hydrolysis is determined by linear regression after plotting the relative rates of hydrolysis (compared to the uninhibited control) versus the log of the concentration of the compound of formulae I and Ia. For calculating the inhibition constant Ki, the IC50 value is corrected for competition with substrate using the formula Ki=IC50/{1+(substrate concentration/Km)} wherein Km is the Michaelis-Menten constant (Chen and Prusoff, Biochem. Pharmacol. 22 (1973), 3099-3108; I. H. Segal, Enzyme Kinetics, 1975, John Wiley & Sons, New York, 100-125; which are incorporated herein by reference).
Factor VIIa (FVIIa) Assay
The inhibitory activity (expressed as inhibition constant Ki(FVIIa)) of the compounds of formulae I and Ia towards factor VIIa/tissue factor activity was determined using a chromogenic assay essentially as described previously (J. A. Ostrem et al., Biochemistry 37 (1998) 1053-1059 which is incorporated herein by reference). Kinetic assays were conducted at 25° C. in half-area microtiter plates (Costar Corp., Cambridge, Ma.) using a kinetic plate reader (Molecular Devices Spectramax 250). A typical assay consisted of 25 μl human factor VIIa and TF (5 nM and 10 nM, respective final concentration) combined with 40 μl of inhibitor dilutions in 10% DMSO/TBS-PEG buffer (50 mM Tris, 15 mM NaCl, 5 mM CaCl2, 0.05% PEG 8000, pH 8.15). Following a 15 minute preincubation period, the assay was initiated by the addition of 35 μl of the chromogenic substrate S-2288 (D-Ile-Pro-Arg-p-nitroanilide, Pharmacia Hepar Inc., 500 μM final concentration).

Row | Compound | Ki
1 | N-(4-Carbamimidoyl-phenyl)-N′—[(S)-1-(3-trifluoromethanesulfonyl-phenyl)-ethyl]-malonamide*trifluoro-acetic acid salt [Example 77] | 99 nM
2 | CC(NC(=O)CC(=O)Nc1ccc(C(=N)N)cc1)c1ccc(OCCCCO)c(C(F)(F)F)c1 (centres unmarked) [Example 51] | 122 nM
3 | C[C@H](NC(=O)CC(=O)Nc1ccc(C(=N)N)cc1)c1ccc(S(=O)(=O)N2CCOCC2)c(Br)c1 [Example 117] | 30 nM
4 | COCCNS(=O)(=O)c1ccc([C@H](C)NC(=O)CC(=O)Nc2ccc(C(=N)N)cc2)cc1C(F)(F)F [Example 75] | 37 nM
5 | C[C@H](NC(=O)CC(=O)Nc1ccc(C(=N)N)cc1)c1ccc(OC2CCOCC2)c(-c2ccc(Cl)s2)c1 [Example 113] | 7 nM
6 | CC(NC(=O)CC(=O)Nc1ccc(C(=N)N)cc1)c1ccc(S(=O)(=O)N2CCOCC2)c(C(F)(F)F)c1 (centres unmarked) [Example 28, N-(4-Carbamimidoyl-phenyl)-N′-{1-[4-(morpholine-4-sulfonyl)-3-trifluoromethyl-phenyl]-ethyl}-malonamide*trifluoro-acetic acid salt] | 55 nM
7 | Cc1ncsc1CCOc1ccc(C(C)NC(=O)CC(=O)Nc2ccc(C(=N)N)cc2)cc1Br (centres unmarked) [Example 61] | 87 nM
8 | C[C@H](NC(=O)CC(=O)Nc1ccc(C(=N)N)cc1)c1ccc(S(=O)(=O)N2CCOC[C@@H]2C)c(C(F)(F)F)c1 [Example 112] | 29 nM
9 | CC(NC(=O)CC(=O)Nc1ccc(C(=N)N)cc1)c1ccc(S(=O)(=O)c2ccncc2)c(C(F)(F)F)c1 (centres unmarked) [Example 74, N-(4-Carbamimidoyl-phenyl)-N′-{1-[4-(pyridine-4-sulfonyl)-3-trifluoromethyl-phenyl]-ethyl}-malonamide*trifluoro-acetic acid salt] | 36 nM
10 | COCCN(C)S(=O)(=O)c1ccc([C@H](C)NC(=O)CC(=O)Nc2ccc(C(=N)N)cc2)cc1C(F)(F)F [Example 76] | 27 nM
11 | CC(NC(=O)CC(=O)Nc1ccc(C(=N)N)cc1)c1ccc(OCCCCCC(=O)O)c(Br)c1 (centres unmarked) [Example 3] | 169 nM
12 | CC(NC(=O)CC(=O)Nc1ccc(C(=N)N)cc1)c1ccc(Oc2cccc(CO)c2)c(Br)c1 (centres unmarked) [Example 2, N-{1-[3-Bromo-4-(3-hydroxymethyl-phenoxy)-phenyl]-ethyl}-N′-(4-carbamimidoyl-phenyl)-malonamide*trifluoro-acetic acid salt] | 171 nM
13 | CC(NC(=O)CC(=O)Nc1ccc(C(=N)N)cc1)c1ccc(OCCCN2CCCC2=O)c(C(F)(F)F)c1 (centres unmarked) [Example 44] | 78 nM
14 | C[C@H](NC(=O)CC(=O)Nc1ccc(C(=N)N)cc1)c1ccc(OCCO)c(C(F)(F)F)c1 [Example 26] | 47 nM
15 | COCCOc1ccc([C@H](C)NC(=O)CC(=O)Nc2ccc(C(=N)N)cc2)cc1C(F)(F)F [Example 10, N-(4-Carbamimidoyl-phenyl)-N′—{(S)-1-[4-(2-methoxy-ethoxy)-3-trifluoromethyl-phenyl]-ethyl}-malonamide] | 24 nM
16 | COC1CCC(Oc2ccc(C(C)NC(=O)CC(=O)Nc3ccc(C(=N)N)cc3)cc2C(F)(F)F)CC1 (centres unmarked) [Example 50] | 80 nM
17 | C[C@H](NC(=O)CC(=O)Nc1ccc(C(=N)N)cc1)c1ccc(Oc2cncc(C(=O)O)c2)c(Br)c1 [Example 1, 5-(2-Bromo-4-{(S)-1-[2-(4-carbamimidoyl-phenylcarbamoyl)-acetylamino]-ethyl}-phenoxy)-nicotinic acid*acetic acid salt] | 41 nM
18 | CC(NC(=O)CC(=O)Nc1ccc(C(=N)N)cc1)c1ccc(OCc2ccoc2)c(Br)c1 (centres unmarked) [Example 52] | 87 nM
19 | CC(C)OCCOc1ccc(C(C)NC(=O)CC(=O)Nc2ccc(C(=N)N)cc2)cc1C(F)(F)F (centres unmarked) [Example 24] | 61 nM
20 | CC(NC(=O)CC(=O)Nc1ccc(C(=N)N)cc1)c1ccc(S(=O)(=O)Cc2ccncc2)c(Cl)c1 (centres unmarked) [Example 67] | 588 nM
